From ChEMBL document CHEMBL1800026 (Bioorg Med Chem, 2010)
Activity calls are given as the source filed them. The rule behind the calls is not given here.

Assays:
[1] = target: Beta-1 adrenergic receptor (Rattus norvegicus, UniProt P18090); experiment: Displacement of [3H]CGP-12177 from beta1-adrenergic receptor in Sprague-Dawley rat cortical membrane after 2 hrs
[2] = target: T1, Beta-2 adrenergic receptor (Homo sapiens, UniProt P07550); experiment: Displacement of [3H]CGP-12177 from human beta2-adrenergic receptor expressed in HEK 293 cells; assay type: cell-based, HEK293
[3] = Selectivity ratio of Ki for beta1-adrenergic receptor in Sprague-Dawley rat cortical membrane to Ki for human beta2-adrenergic receptor
[4] = target: Beta-2 adrenergic receptor (Rattus norvegicus) (UniProt P10608); experiment: Agonist activity beta2-adrenergic receptor in rat ventricular myocytes assessed as cell contraction following electrical stimulation by optical edge tracking method using photodiode array in presence of receptor antagonist ICI 118551; assay type: functional, cell-based
[5] = target: Beta-2 adrenergic receptor (Rattus norvegicus) (UniProt P10608); experiment: Agonist activity beta2-adrenergic receptor in rat ventricular myocytes assessed as cell contraction following electrical stimulation by optical edge tracking method using photodiode array in presence of receptor agonist zinterol; assay type: functional, cell-based
[6] = target: T1, Beta-2 adrenergic receptor; experiment: Displacement of [125I]-CYP from human beta2-adrenergic receptor expressed in COS-7 cells by gamma counting; assay type: cell-based
[7] = target: Beta-1 adrenergic receptor (Homo sapiens, UniProt P08588); experiment: Displacement of [125I]-CYP from human beta1-adrenergic receptor expressed in COS-7 cells by gamma counting; assay type: cell-based
Homo sapiens = organism: Homo sapiens; experiment: Selectivity ratio of Ki for human beta1-adrenergic receptor to Ki human beta2-adrenergic receptor

Chain of Beta-1 adrenergic receptor (Rattus norvegicus, UniProt P18090) (P18090 whole entry): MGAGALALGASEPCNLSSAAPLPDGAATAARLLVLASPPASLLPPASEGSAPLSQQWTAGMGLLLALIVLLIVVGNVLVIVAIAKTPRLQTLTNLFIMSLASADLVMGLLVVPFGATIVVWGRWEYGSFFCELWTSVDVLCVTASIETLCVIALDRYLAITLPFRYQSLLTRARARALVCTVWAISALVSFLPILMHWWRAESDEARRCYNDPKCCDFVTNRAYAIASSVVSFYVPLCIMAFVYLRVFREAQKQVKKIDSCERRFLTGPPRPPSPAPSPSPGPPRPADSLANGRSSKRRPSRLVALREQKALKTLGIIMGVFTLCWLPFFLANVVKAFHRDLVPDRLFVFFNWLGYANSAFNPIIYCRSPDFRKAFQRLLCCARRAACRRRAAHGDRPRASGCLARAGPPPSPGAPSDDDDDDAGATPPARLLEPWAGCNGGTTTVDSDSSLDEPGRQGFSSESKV
T1 sequence (P07550 whole entry): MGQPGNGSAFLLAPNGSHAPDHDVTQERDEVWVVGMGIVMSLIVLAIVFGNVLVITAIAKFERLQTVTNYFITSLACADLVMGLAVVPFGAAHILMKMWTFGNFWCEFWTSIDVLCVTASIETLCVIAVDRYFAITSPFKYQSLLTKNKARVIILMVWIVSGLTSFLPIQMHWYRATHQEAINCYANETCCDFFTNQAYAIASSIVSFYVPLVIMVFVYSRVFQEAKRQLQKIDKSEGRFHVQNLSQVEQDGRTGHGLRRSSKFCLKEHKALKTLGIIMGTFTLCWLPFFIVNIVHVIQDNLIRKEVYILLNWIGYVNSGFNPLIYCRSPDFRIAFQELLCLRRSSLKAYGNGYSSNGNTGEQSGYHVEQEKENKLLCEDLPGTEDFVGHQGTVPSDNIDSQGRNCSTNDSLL
Chain of Beta-2 adrenergic receptor (Rattus norvegicus) (P10608 whole entry, looked up): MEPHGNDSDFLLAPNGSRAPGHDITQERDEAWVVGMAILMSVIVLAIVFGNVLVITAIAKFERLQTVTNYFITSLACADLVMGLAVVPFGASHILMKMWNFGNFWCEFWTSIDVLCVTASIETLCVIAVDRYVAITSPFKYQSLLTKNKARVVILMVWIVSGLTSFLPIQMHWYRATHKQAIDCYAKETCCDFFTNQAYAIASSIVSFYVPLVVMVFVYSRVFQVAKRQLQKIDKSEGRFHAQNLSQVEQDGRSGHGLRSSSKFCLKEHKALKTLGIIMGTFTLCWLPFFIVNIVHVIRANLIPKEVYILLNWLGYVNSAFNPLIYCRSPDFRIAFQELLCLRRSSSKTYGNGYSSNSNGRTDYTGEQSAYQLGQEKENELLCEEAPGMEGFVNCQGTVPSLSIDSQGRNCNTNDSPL
Chain of Beta-1 adrenergic receptor (Homo sapiens, UniProt P08588) (P08588 whole entry): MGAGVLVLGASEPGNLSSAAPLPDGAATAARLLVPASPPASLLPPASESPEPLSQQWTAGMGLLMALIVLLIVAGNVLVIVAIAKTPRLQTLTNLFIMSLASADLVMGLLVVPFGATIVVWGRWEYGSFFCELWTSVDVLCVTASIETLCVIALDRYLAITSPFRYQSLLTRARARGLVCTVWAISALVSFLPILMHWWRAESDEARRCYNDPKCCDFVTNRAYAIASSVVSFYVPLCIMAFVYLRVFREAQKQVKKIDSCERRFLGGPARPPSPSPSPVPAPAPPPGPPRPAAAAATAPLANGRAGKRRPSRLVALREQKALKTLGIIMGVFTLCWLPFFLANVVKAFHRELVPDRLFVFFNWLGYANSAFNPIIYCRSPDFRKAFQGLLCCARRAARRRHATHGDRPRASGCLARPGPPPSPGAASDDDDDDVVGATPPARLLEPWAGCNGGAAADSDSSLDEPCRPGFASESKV

SMILES: C[C@@H](Cc1ccc2ccccc2c1)NC[C@H](O)c1cc(O)cc(O)c1
- Ki [1]: 27.1 µM

SMILES: CC[C@H](Cc1ccc(O)cc1)NC[C@H](O)c1cc(O)cc(O)c1
- Ki [2]: 1.27 µM
- Ki [1]: 424 µM
- Ratio Ki [3]: 334
- Activity [4]: inactive
- Activity [5]: Active

SMILES: COc1ccc(C[C@H](C)NC[C@H](O)c2cc(O)cc(O)c2)c2ccccc12 (racemic)
- Ki [1]: 14.8 µM

SMILES: OCc1cc(C(O)CNCCCCCCCCCCCc2ccccc2)ccc1O (stereo not given)
- Ki [6]: 0.22 µM
- Ki [7]: 2.3 µM
- Ratio Ki (Homo sapiens): 10

SMILES: CC[C@@H](Cc1ccc(O)cc1)NC[C@H](O)c1cc(O)cc(O)c1 (racemic)
- Ki [2]: 5.76 µM
- Ki [1]: 117 µM
- Ratio Ki [3]: 20

SMILES: C[C@H](Cc1ccc2ccccc2c1)NC[C@H](O)c1cc(O)cc(O)c1
- Ki [1]: 16.6 µM

SMILES: COc1ccc(C[C@@H](C)NC[C@H](O)c2cc(O)cc(O)c2)c2ccccc12
- Ki [1]: 161 µM
